Bridge positions count the residues as written; N and C are the ends. Peptide text beside a SMILES is read from it.
Legend:
[1] = Pharmacokinetics in female Balb/c mice; format: in vivo, mouse
[2] = molecular target: HTR2B (Homo sapiens, UniProt P41595); assay: Safetyscan47 GPCR Calcium Flux, Agonist; format: cell-based
[3] = molecular target: T1, GR (Homo sapiens, UniProt P04150); assay: Safetyscan47 NHR Protein Interaction, Antagonist; format: cell-based
T1 sequence (P04150 1-777): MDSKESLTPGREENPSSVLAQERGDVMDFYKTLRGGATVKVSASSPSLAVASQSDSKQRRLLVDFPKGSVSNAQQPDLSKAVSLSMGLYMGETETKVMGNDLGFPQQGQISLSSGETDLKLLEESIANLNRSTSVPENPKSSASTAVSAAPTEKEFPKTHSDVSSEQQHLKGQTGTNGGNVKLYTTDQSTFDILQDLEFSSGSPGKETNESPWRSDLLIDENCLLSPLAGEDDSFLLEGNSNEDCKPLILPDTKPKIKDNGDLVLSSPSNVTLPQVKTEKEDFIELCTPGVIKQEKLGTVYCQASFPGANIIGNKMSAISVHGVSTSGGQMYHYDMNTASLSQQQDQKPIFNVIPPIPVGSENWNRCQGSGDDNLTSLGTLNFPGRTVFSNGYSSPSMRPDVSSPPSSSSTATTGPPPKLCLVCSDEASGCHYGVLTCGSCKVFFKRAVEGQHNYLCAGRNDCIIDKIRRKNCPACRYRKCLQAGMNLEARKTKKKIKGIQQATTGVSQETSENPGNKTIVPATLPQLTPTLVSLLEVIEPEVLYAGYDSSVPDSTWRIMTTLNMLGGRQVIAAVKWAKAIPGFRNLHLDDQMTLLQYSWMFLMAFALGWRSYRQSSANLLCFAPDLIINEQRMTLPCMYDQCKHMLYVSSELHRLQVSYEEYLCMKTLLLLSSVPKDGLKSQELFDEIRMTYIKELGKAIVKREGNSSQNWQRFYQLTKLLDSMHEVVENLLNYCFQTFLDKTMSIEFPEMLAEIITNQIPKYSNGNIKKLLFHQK

[4] = molecular target: T2, COX2 (Homo sapiens, UniProt P35354); assay: Safetyscan47 Non-Kinase Enzymes Enzymatic, Inhibitor; format: biochemical
T2 sequence (P35354 18-604): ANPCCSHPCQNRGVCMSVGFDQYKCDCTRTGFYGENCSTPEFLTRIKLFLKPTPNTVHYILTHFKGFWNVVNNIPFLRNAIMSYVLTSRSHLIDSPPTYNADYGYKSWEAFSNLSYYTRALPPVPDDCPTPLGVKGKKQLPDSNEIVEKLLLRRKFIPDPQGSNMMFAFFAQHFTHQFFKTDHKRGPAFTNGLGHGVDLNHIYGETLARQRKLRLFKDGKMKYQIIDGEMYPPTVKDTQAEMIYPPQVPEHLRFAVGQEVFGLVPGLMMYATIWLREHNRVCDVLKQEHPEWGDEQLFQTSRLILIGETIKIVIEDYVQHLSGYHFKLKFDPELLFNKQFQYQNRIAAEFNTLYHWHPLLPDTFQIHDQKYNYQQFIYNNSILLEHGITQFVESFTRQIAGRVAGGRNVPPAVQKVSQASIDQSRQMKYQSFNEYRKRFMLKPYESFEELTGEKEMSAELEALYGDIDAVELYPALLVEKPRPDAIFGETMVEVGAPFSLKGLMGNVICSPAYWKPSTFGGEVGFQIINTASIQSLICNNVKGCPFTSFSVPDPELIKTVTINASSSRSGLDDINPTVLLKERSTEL

[5] = IP 30 mg/kg, mouse, animal 11F031
[6] = IP 30 mg/kg, mouse, animal 11F032
[7] = IP 30 mg/kg, mouse, animal 11F033
[8] = Table 3SA: IP 30 mg/kg, Mean N=2
[9] = female, Balb/c, mouse, plasma, ip, 30 mg/kg

HTR2B, sequence (P41595 whole entry): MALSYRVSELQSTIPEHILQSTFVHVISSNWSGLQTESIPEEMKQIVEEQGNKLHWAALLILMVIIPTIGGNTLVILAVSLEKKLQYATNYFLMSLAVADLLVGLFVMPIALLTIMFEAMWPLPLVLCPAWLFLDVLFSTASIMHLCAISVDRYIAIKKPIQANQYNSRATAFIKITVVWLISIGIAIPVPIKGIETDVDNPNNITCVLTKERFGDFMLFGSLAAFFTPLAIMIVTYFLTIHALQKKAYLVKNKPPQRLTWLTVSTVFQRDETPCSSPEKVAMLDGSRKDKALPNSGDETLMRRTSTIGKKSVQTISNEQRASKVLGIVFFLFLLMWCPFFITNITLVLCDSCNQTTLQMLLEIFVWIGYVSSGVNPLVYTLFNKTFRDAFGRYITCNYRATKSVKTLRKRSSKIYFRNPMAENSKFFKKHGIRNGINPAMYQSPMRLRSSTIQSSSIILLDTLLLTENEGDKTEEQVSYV

`CC[C@H](C)[C@H](NC(=O)[C@H](CC(C)C)NC(=O)[C@H](CC(=O)O)NC(=O)CNC(=O)[C@H](CCCNC(=N)N)NC(=O)[C@@H](NC(=O)[C@H](Cc1ccccc1)NC(=O)[C@H](Cc1ccc(O)cc1)NC(=O)[C@@H]1CCC(=O)NCC(=O)NCC(=O)N[C@@H](CCCNC(=N)N)C(=O)NCC(=O)N[C@@H](Cc2c[nH]cn2)C(=O)N[C@@H](C(C)C)C(=O)N2CCC[C@H]2C(=O)N1)C(C)C)C(=O)N[C@@H](CO)C(=O)N[C@@H](Cc1ccccc1)C(=O)N[C@@H](Cc1ccc(O)cc1)C(=O)N[C@@H](CCCCN)C(=O)O` [lassotide 36] (GGRGHVPEYFVRGDLISFYK-OH; lactam N-8) gave an AUCINF [1, 5] of 64500, an AUClast [1, 5] of 64500 and a CL/F [1, 5] of 7.75. It also gave a Cmax [1, 5] of 21000, a Tmax [1, 5] of 2.0 and a Vz/F [1, 5] of 363. It also gave a t1/2 [1, 5] of 0.54, an AUCINF [1, 6] of 71700 and an AUClast [1, 6] of 69400. The CL/F [1, 6] was 6.97, the Cmax [1, 6] was 27300 and the Tmax [1, 6] was 1.0. It also gave a Vz/F [1, 6] of 389, a t1/2 [1, 6] of 0.64 and an AUClast [1, 7] of 885. For the same compound, the Cmax [1, 7] was 10600, the Tmax [1, 7] was 0.17 and the Vz ([1]; Mouse, 30 mg/kg IP, mean) was 0.4 L/kg. The AUCINF [1, 8] was 68100, the Vz/F [1, 8] was 376 and the AUC(0-t) [1, 9] was 44900 ng·h/mL. It also gave a CL/F [1, 9] of 7.36 mL/min/kg, a Cmax [1, 9] of 19600 ng/mL and a Tmax [1, 9] of 63.6 min. The half-life [1, 9] was 35.5 min, the EC50 [2] was > 45 µM and the Emax ([2]; read-out: Max Response) was 0%. The IC50 [3] was > 45 µM, the Emax ([3]; read-out: Max Response) was 0% and the IC50 [4] was > 45 µM. It also gave an Emax ([4]; read-out: Max Response) of 26.5%.

— article doi:10.1101/2025.01.28.635346v1 (bioRxiv, 2025)
